One compound from EP0341019A2, “Polyether antibiotic” (priority 1988, dated 1989) can be followed below.

Molecules are shown by their SMILES. In brackets after ≈: the same amount, converted by molar mass.

For test [1], the system named is Eimeria acervulina H & C and Eimeria tenella Wis. As to the kind of experiment: anticoccidial feed test in infected chickens, ionophore-sensitive strains. The test is classed as in vivo.
Test [2] relates to Enterobacter aerogenes EB17. The test is classed as cell-based. Conditions: Klebsiella aerogenes, EB17, 24 h.
The subject of a further test is E. maxima Strain LIT-626. As to the kind of experiment: anticoccidial feed test in infected chickens, ionophore-resistant strain. It counts as in vivo.
For test [3], the system named is Pseudomonas aeruginosa X239. It counts as cell-based. As to conditions: X239, 24 h.
Test [4] concerns Pseudomonas aeruginosa PS72. The test is classed as cell-based. Conditions: PS72, 24 h.

For the compound `CC[C@@H](O)[C@]1(C)C[C@H](C)[C@@](O)([C@H]2C[C@H](C)[C@H]([C@]3(C)C[C@@H](O[C@H]4CC[C@H](OC)[C@@H](C)O4)[C@H]([C@]4(C)CC[C@@]5(O[C@H]([C@@H](C)[C@@H](OC)[C@H](C)C(=O)O)[C@H](C)[C@@H](OC)[C@H]5C)O4)O3)O2)O1` [Example A82810], the “AVERAGE INTESTINAL LESION SCORES” value in test [1] (2 ppm) is recorded as 1.2; in test [1] (6 ppm), 0.4; in test [1] (10 ppm) it was 0.3; with E. maxima Strain LIT-626 (1.25 ppm) it was 3.7; with E. maxima Strain LIT-626 (1.5 ppm), 3.3; with E. maxima Strain LIT-626 (1.75 ppm), 4.0. Also, in the test with E. maxima Strain LIT-626 (2 ppm), the “AVERAGE INTESTINAL LESION SCORES” value is 3.3. For the same compound, the “WEIGHT GAIN, PERCENT OF CONTROL” value in test [1] (2 ppm) came to 98% OF CONTROL; in test [1] (6 ppm), 91% OF CONTROL; in test [1] (10 ppm) it was 80% OF CONTROL; with E. maxima Strain LIT-626 (1.25 ppm) it was 99% OF CONTROL; in the test on E. maxima Strain LIT-626 (1.5 ppm), 102% OF CONTROL; in the test with E. maxima Strain LIT-626 (1.75 ppm), 101% OF CONTROL. Moreover, the “WEIGHT GAIN, PERCENT OF CONTROL” value in the test on E. maxima Strain LIT-626 (2 ppm) is 94% OF CONTROL. For the same compound, the MIC in test [2] stood at 8 µg/mL (≈ 9.49 µM); in test [3], 0.25 µg/mL (≈ 0.297 µM); in test [4] it was 0.25 µg/mL (≈ 0.297 µM).

One may read the MIC as the lowest concentration found to suppress growth. Higher therefore signals a need for much substance.
